Reference: patent US20090053697A1, “Pharmacological Applications of Mitochondrial DNA Assays” (priority 2001, published 2009)

Experiment: Random venous lactic acid measurement
Assay type: in vivo, human
Settings: for months after resuming therapy; normal range 0.5-2.1 mmol/L
Text: Venous specimens for lactic acid determination were collected in sodium fluoride/potassium oxalate tubes, with normal tourniquet and no specific patient instruction other than the avoidance of first clenching or hand pumping. […]

venous lactate levels: remained within the normal range
SMILES: Cc1cn([C@H]2C[C@H](N=[N+]=[N-])[C@@H](CO)O2)c(=O)[nH]c1=O [zidovudine]
